{
  "source": "paper PMC8421423",
  "about": "“Cellular model system to dissect the isoform-selectivity of Akt inhibitors” (Nature Communications, 2021)",
  "key": {"Akt2 [1]": {"molecular_target": "T1, Akt2 (Homo sapiens, UniProt P31751)", "T1 sequence (P31751 whole entry)": "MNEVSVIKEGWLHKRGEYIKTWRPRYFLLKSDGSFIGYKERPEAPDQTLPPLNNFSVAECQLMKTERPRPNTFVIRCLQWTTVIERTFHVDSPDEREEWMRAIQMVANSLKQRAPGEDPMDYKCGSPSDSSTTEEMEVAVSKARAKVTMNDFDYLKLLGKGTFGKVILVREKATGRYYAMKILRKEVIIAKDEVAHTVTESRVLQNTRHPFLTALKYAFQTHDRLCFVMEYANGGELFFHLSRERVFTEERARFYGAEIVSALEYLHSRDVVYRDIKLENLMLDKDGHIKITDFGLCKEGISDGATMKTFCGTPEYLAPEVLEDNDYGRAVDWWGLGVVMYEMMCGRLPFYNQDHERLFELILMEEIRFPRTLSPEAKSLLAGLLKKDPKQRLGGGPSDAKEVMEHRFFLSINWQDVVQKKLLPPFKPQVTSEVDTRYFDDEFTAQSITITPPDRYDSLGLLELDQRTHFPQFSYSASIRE", "assay": "Cellular thermal shift assay (CETSA) in PANC1 cells", "type": "cell-based", "set-up": "purchased Thermo Fisher Scientific #PV3184", "details": "CETSA PANC1, 1 µM"}, "Akt1": {"molecular_target": "Akt1 (Homo sapiens, UniProt P31749)", "sequence (P31749 whole entry)": "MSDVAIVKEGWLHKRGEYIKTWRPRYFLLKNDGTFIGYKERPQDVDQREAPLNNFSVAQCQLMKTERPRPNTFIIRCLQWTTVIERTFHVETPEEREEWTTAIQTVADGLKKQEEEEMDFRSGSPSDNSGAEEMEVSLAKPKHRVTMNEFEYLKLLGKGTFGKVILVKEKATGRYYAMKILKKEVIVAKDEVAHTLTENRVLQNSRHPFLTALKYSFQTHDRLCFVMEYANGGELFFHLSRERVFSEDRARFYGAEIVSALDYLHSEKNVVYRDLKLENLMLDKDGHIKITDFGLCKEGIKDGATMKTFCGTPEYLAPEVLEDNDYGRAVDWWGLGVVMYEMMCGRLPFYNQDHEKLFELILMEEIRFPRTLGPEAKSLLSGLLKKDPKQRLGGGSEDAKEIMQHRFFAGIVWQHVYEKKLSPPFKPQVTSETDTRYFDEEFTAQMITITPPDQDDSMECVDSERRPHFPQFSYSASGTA", "assay": "Cellular thermal shift assay (CETSA) in PANC1 cells", "type": "cell-based", "set-up": "purchased ProQinase #1379-0000-2", "description": "Cells were seeded into 100 mm tissue culture plates (Sarstedt) (PANC1: 10^6 cells). After 24 h incubation, cells were treated with 1 µM of inhibitors or DMSO and were incubated for 4.5 h. Cells were washed twice with ice-cold PBS and then suspended in 1 mL PBS. Cells were collected and separated into equal volumes (100 µL). The aliquots were treated individually with different temperatures for 3 min, followed by a 3 min incubation at room temperature. Cell lysis was initiated by adding 100 µL RIPA buffer and 2 freeze-thaw cycles in liquid nitrogen. The lysates were centrifuged at 21,130×g for 20 min at room temperature. The supernatants were transferred into fresh, pre-cooled microcentrifuge tubes, and analyzed by western blot analysis as described above."}, "Ba/F3^myr-Akt3 cells": {"system": "Ba/F3^myr-Akt3 cells", "assay": "CellTiter-Glo cell viability assay", "details": "for cell viability: CTG"}, "Ba/F3^myr-Akt2 cells": {"system": "Ba/F3^myr-Akt2 cells", "assay": "CellTiter-Glo cell viability assay", "details": "for cell viability: CTG", "description": "On day 0, cells were plated into white 384-well cell culture plates (Greiner Bio-One) using a Multidrop reagent dispenser (Thermo Fisher Scientific) at cell numbers that ensure linear and optimal luminescent signal intensity (Ba/F3myr-Akt1: 600 cells/well, Ba/F3myr-Akt2: 800 cells/well, Ba/F3myr-Akt3: 800 cells/well). […] Cell viability was analyzed on day 4 using the CellTiter-Glo Assay (Promega) as per the manufacturer’s instructions. […] All experimental points were measured in duplicates for each plate and were replicated in at least three plates."}, "[2]": {"assay": "CellTiter-Glo cell viability assay", "type": "cell-based, murine", "details": "mouse, parental Ba/F3 cells, CTG, parental, single replicates"}, "parental Ba/F3 cells": {"system": "parental Ba/F3 cells", "assay": "CellTiter-Glo cell viability assay", "type": "cell-based, murine", "details": "for cell viability: CTG, parental"}, "Akt2 [3]": {"molecular_target": "T1, Akt2", "assay": "STK HTRF KinEASE activity-based assay (IC50)"}},
  "note": "Values joined by “and” are separate entries in the source; they are usually repeats but may differ in a detail not shown here. Equal entries are not always repeated. Where two headings read alike, the source gives them in different places.",
  "data": [
    {"smiles": "C=CC(=O)Nc1ccc2[nH]c(=O)n(C3CCN(Cc4ccc(-c5ncccc5-c5ccccc5)cc4)CC3)c2c1", "note": "[compound 1]", "values": [
      {"measurement": "tAkt2 %", "setting": "Akt2 [1]; temperature 70.9", "value": -2.39, "unit": "%"},
      {"measurement": "tAkt2 %", "setting": "Akt2 [1]; temperature 76", "value": 37.12, "unit": "%"},
      {"measurement": "tAkt2 %", "setting": "Akt2 [1]; temperature 79.9", "value": 0.00, "unit": "%"},
      {"measurement": "tAkt1 %", "setting": "Akt1; CETSA PANC1, 0.3 µM, temperature 39.9", "value": 100.00, "unit": "%"},
      {"measurement": "tAkt1 %", "setting": "Akt1; CETSA PANC1, 0.3 µM, temperature 43.5", "value": 101.52, "unit": "%"},
      {"measurement": "tAkt1 %", "setting": "Akt1; CETSA PANC1, 0.3 µM, temperature 48.4", "value": 79.62, "unit": "%"},
      {"measurement": "tAkt1 %", "setting": "Akt1; CETSA PANC1, 0.3 µM, temperature 53.8", "value": 74.15, "unit": "%"},
      {"measurement": "tAkt1 %", "setting": "Akt1; CETSA PANC1, 0.3 µM, temperature 58.1", "value": 68.37, "unit": "%"},
      {"measurement": "tAkt1 %", "setting": "Akt1; CETSA PANC1, 0.3 µM, temperature 61.4", "value": 51.95, "unit": "%"},
      {"measurement": "tAkt1 %", "setting": "Akt1; CETSA PANC1, 0.3 µM, temperature 65.6", "value": 36.13, "unit": "%"},
      {"measurement": "tAkt1 %", "setting": "Akt1; CETSA PANC1, 0.3 µM, temperature 70.9", "value": 22.45, "unit": "%"},
      {"measurement": "tAkt1 %", "setting": "Akt1; CETSA PANC1, 0.3 µM, temperature 76", "value": 11.95, "unit": "%"},
      {"measurement": "tAkt1 %", "setting": "Akt1; CETSA PANC1, 0.3 µM, temperature 79.9", "value": 0.00, "unit": "%"},
      {"measurement": "tAkt1 %", "setting": "Akt1; CETSA PANC1, 1 µM, temperature 39.9", "value": 100.00, "unit": "%"},
      {"measurement": "tAkt1 %", "setting": "Akt1; CETSA PANC1, 1 µM, temperature 43.5", "value": 88.73, "unit": "%"},
      {"measurement": "tAkt1 %", "setting": "Akt1; CETSA PANC1, 1 µM, temperature 48.4", "value": 82.43, "unit": "%"},
      {"measurement": "tAkt1 %", "setting": "Akt1; CETSA PANC1, 1 µM, temperature 53.8", "value": 73.59, "unit": "%"},
      {"measurement": "tAkt1 %", "setting": "Akt1; CETSA PANC1, 1 µM, temperature 58.1", "value": 56.69, "unit": "%"},
      {"measurement": "tAkt1 %", "setting": "Akt1; CETSA PANC1, 1 µM, temperature 61.4", "value": 2.43, "unit": "%"},
      {"measurement": "tAkt1 %", "setting": "Akt1; CETSA PANC1, 1 µM, temperature 65.6", "value": 11.71, "unit": "%"},
      {"measurement": "tAkt1 %", "setting": "Akt1; CETSA PANC1, 1 µM, temperature 70.9", "value": 5.41, "unit": "%"},
      {"measurement": "tAkt1 %", "setting": "Akt1; CETSA PANC1, 1 µM, temperature 76", "value": 0.00, "unit": "%"},
      {"measurement": "tAkt1 %", "setting": "Akt1; CETSA PANC1, 1 µM, temperature 79.9", "value": 0.00, "unit": "%"},
      {"measurement": "thermal stabilization of Akt1 (CETSA, in words)", "setting": "Akt1; PANC1, 0.3 µM", "value": "preferred stabilization of Akt1"},
      {"measurement": "thermal stabilization of Akt1 (CETSA, in words)", "setting": "Akt1; PANC1, 1 µM", "value": "losing this selectivity"},
      {"measurement": "cell viability", "setting": "Ba/F3^myr-Akt3 cells; myr-Akt3, 0.1 nM, single replicates, 0.0001 µM", "value": "105.8 % of control and 97.9 % of control"},
      {"measurement": "cell viability", "setting": "Ba/F3^myr-Akt3 cells; myr-Akt3, 5000 nM, single replicates, 5 µM", "value": "61.6 % of control and 92.9 % of control and 84.6 % of control"},
      {"measurement": "EC50", "setting": "Ba/F3^myr-Akt3 cells; Mus musculus, read-out: CTG BaF3myr-Akt3, Mean, mean of replicates", "value": "> 30", "unit": "µM"},
      {"measurement": "EC50", "setting": "Ba/F3^myr-Akt3 cells; Mus musculus, read-out: CTG BaF3myr-Akt3, individual determinations, single replicates", "value": "> 30", "unit": "µM"},
      {"measurement": "EC50", "setting": "Ba/F3^myr-Akt3 cells; Mus musculus, read-out: EC50 BaF3myr-Akt3, CTG", "value": "> 30", "unit": "µM"},
      {"measurement": "viability at 0.0001 µM", "setting": "Ba/F3^myr-Akt3 cells; Mus musculus, read-out: cell viability, CTG, myr-Akt3, 0.1 nM, single replicates", "value": 103, "unit": "%"},
      {"measurement": "Log ratio EC50 [Akt] / EC50 [Akt], Akt3 / Akt2", "setting": "Ba/F3^myr-Akt3 cells; cell viability assay Ba/F3 myr-Akt cells, log units", "value": -0.83},
      {"measurement": "EC50", "setting": "Ba/F3^myr-Akt3 cells; read-out: CTG BaF3myr-Akt3, individual determinations, single replicates", "value": "> 30", "unit": "µM"},
      {"measurement": "cell viability", "setting": "Ba/F3^myr-Akt2 cells; myr-Akt2, 0.1 nM, single replicates, 0.0001 µM", "value": "96.6 % of control and 111.8 % of control"},
      {"measurement": "cell viability", "setting": "Ba/F3^myr-Akt2 cells; myr-Akt2, 5000 nM, single replicates, 5 µM", "value": "74.8 % of control and 79.6 % of control"},
      {"measurement": "EC50", "setting": "Ba/F3^myr-Akt2 cells; Mus musculus, read-out: CTG BaF3myr-Akt2, Mean, mean of replicates", "value": 4.47, "unit": "µM"},
      {"measurement": "viability at 0.0001 µM", "setting": "Ba/F3^myr-Akt2 cells; Mus musculus, read-out: cell viability, CTG, myr-Akt2, 0.1 nM, single replicates", "value": 105, "unit": "%"},
      {"measurement": "viability at 5 µM", "setting": "Ba/F3^myr-Akt2 cells; Mus musculus, read-out: cell viability, CTG, myr-Akt2, 5000 nM, single replicates", "value": 84.5, "unit": "%"},
      {"measurement": "EC50", "setting": "Ba/F3^myr-Akt2 cells; read-out: CTG BaF3myr-Akt2, individual determinations, single replicates", "value": "6.33 µM and 5.56 µM and 1.52 µM"},
      {"measurement": "viability at 3 days, 0.0001 µM", "setting": "[2]; 0.1 nM, read-out: cell viability", "value": 100, "unit": "%"},
      {"measurement": "viability at 3 days, 5 µM", "setting": "[2]; 5000 nM", "value": 106, "unit": "%"},
      {"measurement": "cell viability", "setting": "parental Ba/F3 cells; 0.1 nM, single replicates, 0.0001 µM", "value": "107.4 % of control and 103.8 % of control"},
      {"measurement": "cell viability", "setting": "parental Ba/F3 cells; 5000 nM, single replicates, 5 µM", "value": "99.2 % of control and 101.9 % of control"},
      {"measurement": "EC50", "setting": "parental Ba/F3 cells; Mus musculus, BaF3, parental cells, mean of replicates, read-out: CTG BaF3, Mean", "value": 6.89, "unit": "µM"},
      {"measurement": "EC50", "setting": "parental Ba/F3 cells; Mus musculus, BaF3, parental cells, single replicates, read-out: CTG BaF3, individual determinations", "value": 7.69, "unit": "µM"},
      {"measurement": "EC50", "setting": "parental Ba/F3 cells; parental cells, single replicates, read-out: CTG BaF3, individual determinations", "value": "6.99 µM and 6 µM"},
      {"measurement": "IC50", "setting": "Akt2 [3]; HTRF IC50 Akt2, Mean, mean of replicates", "value": 0.599, "unit": "µM"},
      {"measurement": "IC50", "setting": "Akt2 [3]; HTRF IC50 Akt2, individual determinations, single replicates", "value": "0.658 µM and 0.512 µM and 0.626 µM"},
      {"measurement": "IC50", "setting": "Akt2 [3]; IC50 Akt2, HTRF, ATP at KM, 1 h preincubation", "value": "0.599 ± 0.063", "unit": "µM"},
      {"measurement": "loss of activity for Akt2 compared to Akt1", "setting": "Akt2 [3]; biochemical IC50", "value": 10, "unit": "fold"}
    ]}
  ]
}
